Experimental data reported in ChEMBL document CHEMBL1126058, “Development of potent and selective CCK-A receptor agonists from Boc-CCK-4: tetrapeptides containing Lys(N epsilon)-amide residues” (J Med Chem, 1992).
Where a SMILES comes first, the peptide text is derived from it. [ ]: non-standard residue; d: D form. The star is where a group is joined. Acryloyl(3-(3-pyridyl),E) = O=C(/C=C/c1cccnc1)*; 2Naphthoyl(6-OH) = O=C(c1ccc2cc(O)ccc2c1)*; Dihydrocaffeoyl = O=C(CCc1ccc(O)c(O)c1)*; X35 = O=C(/C=C\c1ccc(OS(=O)(=O)O)cc1)*; Desaminotyrosyl = O=C(CCc1ccc(O)cc1)*; Butanoyl(4-Ph) = O=C(CCCc1ccccc1)*; 1Naphthoyl = O=C(c1cccc2ccccc12)*; 2Naphthoyl = O=C(c1ccc2ccccc2c1)*; NMeF = CN[C@@H](Cc1ccccc1)C(=O)O; X34 = O=C(/C=C\c1ccc(Cl)cc1)*; Boc = CC(C)(C)OC(=O)*

How the values were obtained:
Cavia porcellus [1] = organism: Cavia porcellus; assay: Hydrolysis of phosphoinositide (PI) relative to maximal response elicited by CCK-8 in guinea pig pancreas.; format: functional
Cavia porcellus [2] = organism: Cavia porcellus; assay: Stimulation of amylase release in guinea pig pancreas; format: functional
[3] = target: T1, Cholecystokinin receptor type A (Cavia porcellus, UniProt Q63931); assay: Inhibition of specific binding of [125I]BH-CCK-8 in guinea pig pancreas.
T1 sequence (Q63931 whole entry): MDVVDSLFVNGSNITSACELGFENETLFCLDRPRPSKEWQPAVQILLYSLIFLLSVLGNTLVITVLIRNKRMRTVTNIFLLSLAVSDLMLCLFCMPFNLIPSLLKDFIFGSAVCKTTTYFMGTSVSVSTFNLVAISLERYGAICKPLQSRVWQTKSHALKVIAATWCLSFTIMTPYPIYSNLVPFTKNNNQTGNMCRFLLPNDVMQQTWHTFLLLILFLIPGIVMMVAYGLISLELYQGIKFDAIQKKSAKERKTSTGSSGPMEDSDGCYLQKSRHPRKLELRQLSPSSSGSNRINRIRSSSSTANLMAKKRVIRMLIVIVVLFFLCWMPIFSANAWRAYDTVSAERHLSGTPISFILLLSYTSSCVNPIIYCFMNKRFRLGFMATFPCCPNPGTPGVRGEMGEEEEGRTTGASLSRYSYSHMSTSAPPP

Structure (SMILES)	EC50 (Cavia porcellus [2]) [µM]	IC50 [3] [µM]	Max (Cavia porcellus [1]) [%]
CC(C)(C)OC(=O)N[C@@H](Cc1c[nH]c2ccccc12)C(=O)N[C@@H](CCCCNC(=O)c1ccc2cc(O)ccc2c1)C(=O)N[C@@H](CC(=O)O)C(=O)N[C@@H](Cc1ccccc1)C(N)=O (Boc-WK(2Naphthoyl(6-OH))DF-NH2)	0.0035	0.0045	50
CC(C)(C)OC(=O)N[C@@H](Cc1c[nH]c2ccccc12)C(=O)N[C@@H](CCCCNC(=O)/C=C/c1cccnc1)C(=O)N[C@@H](CC(=O)O)C(=O)N[C@@H](Cc1ccccc1)C(N)=O (Boc-WK(Acryloyl(3-(3-pyridyl),E))DF-NH2)	0.038	0.021	60
CC(C)(C)OC(=O)N[C@@H](Cc1c[nH]c2ccccc12)C(=O)N[C@@H](CCCCNC(=O)CCCc1ccccc1)C(=O)N[C@@H](CC(=O)O)C(=O)N[C@@H](Cc1ccccc1)C(N)=O (Boc-WK(Butanoyl(4-Ph))DF-NH2)	30	0.91	19
CN(C(=O)[C@H](CC(=O)O)NC(=O)[C@H](CCCCNC(=O)CCc1ccc(O)cc1)NC(=O)[C@H](Cc1c[nH]c2ccccc12)NC(=O)OC(C)(C)C)[C@@H](Cc1ccccc1)C(N)=O (Boc-WK(Desaminotyrosyl)D[NMeF]-NH2)	0.032	0.03	77
CC(C)(C)OC(=O)N[C@@H](Cc1c[nH]c2ccccc12)C(=O)N[C@@H](CCCCNC(=O)/C=C\c1ccc(Cl)cc1)C(=O)N[C@@H](CC(=O)O)C(=O)N[C@@H](Cc1ccccc1)C(N)=O (Boc-WK(X34)DF-NH2)	0.079		66
CC(C)(C)OC(=O)N[C@@H](Cc1c[nH]c2ccccc12)C(=O)N[C@@H](CCCCNC(=O)/C=C\c1ccc(OS(=O)(=O)O)cc1)C(=O)N[C@@H](CC(=O)O)C(=O)N[C@@H](Cc1ccccc1)C(N)=O (Boc-WK(X35)DF-NH2)	0.0072		72

The remaining molecules from weak to strong by EC50 (Cavia porcellus [2]), led by results:

EC50 (Cavia porcellus [2]) [µM]	IC50 [3] [µM]	Structure (SMILES)	Max (Cavia porcellus [1]) [%]
2.6		CSCC[C@H](NC(=O)[C@H](Cc1c[nH]c2ccccc12)NC(=O)OC(C)(C)C)C(=O)N[C@@H](CC(=O)O)C(=O)N[C@@H](Cc1ccccc1)C(N)=O	40
0.3	0.16	CC(C)(C)OC(=O)N[C@@H](Cc1c[nH]c2ccccc12)C(=O)N[C@@H](CCCCNC(=O)CCc1ccc(O)c(O)c1)C(=O)N[C@@H](CC(=O)O)C(=O)N[C@@H](Cc1ccccc1)C(N)=O (Boc-WK(Dihydrocaffeoyl)DF-NH2)	44
0.092	0.12	CC(C)(C)OC(=O)N[C@@H](Cc1c[nH]c2ccccc12)C(=O)N[C@@H](CCCCNC(=O)CCc1ccc(O)cc1)C(=O)N[C@@H](CC(=O)O)C(=O)N[C@@H](Cc1ccccc1)C(N)=O (Boc-WK(Desaminotyrosyl)DF-NH2)	77
0.079	0.057	CC(C)(C)OC(=O)N[C@@H](Cc1c[nH]c2ccccc12)C(=O)N[C@@H](CCCCNC(=O)c1cccc2ccccc12)C(=O)N[C@@H](CC(=O)O)C(=O)N[C@@H](Cc1ccccc1)C(N)=O (Boc-WK(1Naphthoyl)DF-NH2)	61
0.028	0.028	CN(C(=O)[C@H](CC(=O)O)NC(=O)[C@H](CCCCNC(=O)/C=C/c1cccnc1)NC(=O)[C@H](Cc1c[nH]c2ccccc12)NC(=O)OC(C)(C)C)[C@@H](Cc1ccccc1)C(N)=O (Boc-WK(Acryloyl(3-(3-pyridyl),E))D[NMeF]-NH2)	74
0.004	0.014	CC(C)(C)OC(=O)N[C@@H](Cc1c[nH]c2ccccc12)C(=O)N[C@@H](CCCCNC(=O)c1ccc2ccccc2c1)C(=O)N[C@@H](CC(=O)O)C(=O)N[C@@H](Cc1ccccc1)C(N)=O (Boc-WK(2Naphthoyl)DF-NH2)	36
0.0024	0.0038	CN(C(=O)[C@H](CC(=O)O)NC(=O)[C@H](CCCCNC(=O)c1ccc2cc(O)ccc2c1)NC(=O)[C@H](Cc1c[nH]c2ccccc12)NC(=O)OC(C)(C)C)[C@@H](Cc1ccccc1)C(N)=O (Boc-WK(2Naphthoyl(6-OH))D[NMeF]-NH2)	52
